Laboratory results published in patent US10633389B2, “CARM1 inhibitors and uses thereof” (Epizyme, Inc., priority 2013, dated 2020).

Each molecule was assayed on asymmetric di-methyl PABP1 in RKO cells (assay: RKO methylation assay, In Cell Western (ICW) for asymmetric di-methyl PABP1). Conditions: Homo sapiens, RKO, Cellular potencies, ICW PABP1me2a.
Assay type: cell-based
Outline: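 RKO cells treated with compound for 48 h at 37 °C, then fixed, permeabilized and immunostained for asymmetric di-methyl PABP1, with DRAQ5 as DNA stain. Infrared 700/800 nm signal ratio normalized to DMSO and 20 μM reference-compound controls; IC50 from triplicate wells.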
`CNCC(O)COc1cccc(-c2nc(-c3c(C)noc3C)cc(N3C[C@@H]4C[C@H]3CN4C(C)=O)n2)c1` (stereo partly shown) [Example 95-1a] showed an IC50 of 10 to 20 µM. Molecule `CNCC(O)COc1cccc(-c2nc(Nc3cncnc3)cc(-c3c(C)noc3C)n2)c1` (stereo not shown) [Example 21-1a] has an IC50 of 5 to 10 µM. Molecule `CNCC(O)COc1cccc(-c2nc(NC3CCCN(C4COC4)C3)c(C)c(-c3c(C)noc3C)n2)c1` (stereo not shown) [Example 246-1a] has an IC50 of 5 to 10 µM. `CNCC(O)COc1cccc(-c2nc(-c3c(C)noc3C)c(C)c(N3CCO[C@H](CN(C)C(=O)OC)C3)n2)c1` (stereo partly shown) [Example 127-1a] showed an IC50 of under 5 µM. In the case of `CNC[C@@H](O)COc1ccc(Cl)c(-c2nc(N[C@@H]3CCN(C(=O)OC)[C@H](C)C3)c(C)c(-c3c(C)noc3C)n2)c1` [Example 135-3], the IC50 is reported as under 5 µM. With `CNCC(O)COc1cccc(-c2nc(N[C@@H]3CCOC3)c(C)c(N3Cc4nc(C)sc4C3)n2)c1` (stereo partly shown) [Example 465-1a] the IC50 was under 5 µM. Work on `CNCC(O)COc1cccc(-c2nc(N(C)C3CCOCC3)cc(-n3nc(C)cc3C)n2)c1` (stereo not shown) [Example 568-1a] yielded an IC50 of 10 to 20 µM. For `CNC[C@@H](O)COc1ccc(Cl)c(-c2nc(OC[C@@H]3CCOC3)c(C)c(-c3c(C)noc3C)n2)c1` [Example 126-3], the IC50 was under 5 µM. `CNC[C@@H](O)COc1ccc(F)c(-c2nc(-c3c(C)noc3C)c(C)c(N3Cc4cccnc4C3)n2)c1` [Example 114-3] was tested, and the IC50 was under 5 µM. In the case of `CNCC(O)COc1cccc(-c2nc(-c3c(C)noc3C)cc(N3CCN(C)CC3)n2)c1` (stereo not shown) [Example 19-1a], the IC50 is reported as 10 to 20 µM. Work on `CNCC(O)COc1cccc(-c2nc(-c3scnc3C)cc(N(C)C3CCOCC3)n2)c1` (stereo not shown) [Example 495-1a] yielded an IC50 of under 5 µM. `CNCC(O)COc1ccc(Cl)c(-c2nc(N[C@H]3CCC[C@@H](O)C3)c(C)c(-c3c(C)noc3C)n2)c1` (stereo partly shown) [Example 39-3] was tested, and the IC50 was under 5 µM. Molecule `CNC[C@@H](O)COc1ccc(Cl)c(-c2nc(N[C@H]3C[C@H](OC)C3)c(C)c(-c3c(C)noc3C)n2)c1` [Example 143-3] has an IC50 of under 5 µM. `CNCC(O)COc1ccc(Cl)c(-c2nc(NC3CC4(CCN(C(=O)OC)CC4)C3)c(C)c(-c3c(C)noc3C)n2)c1` (stereo not shown) [Example 37-3] gave an IC50 of under 5 µM. With `CCOC(=O)N1CCCC(CNc2nc(-c3cccc(OCC(O)CNC)c3)nc(-c3c(C)noc3C)c2C)C1` (stereo not shown) [Example 194-1a] the IC50 was under 5 µM. `CNCC(O)COc1cccc(-c2nc(OCC3CCN(S(C)(=O)=O)CC3)c(C)c(-c3c(C)noc3C)n2)c1` (stereo not shown) [Example 286-1a] was tested, and the IC50 was under 5 µM. With `CNC[C@@H](O)COc1ccc(Cl)c(-c2nc(-c3c(C)noc3C)c(C)c(N3CCC4(C3)CN(C3CC3)C4)n2)c1` [Example 178-3] the IC50 was under 5 µM. Work on `CNCC(O)COc1cccc(-c2nc(N[C@@H]3CCOC3)c(C)c(N3CCN(CC(F)F)CC3)n2)c1` (stereo partly shown) [Example 458-1a] yielded an IC50 of under 5 µM. With `CNCC(O)COc1cccc(-c2nc(N[C@H]3CC[C@H](O)C3)c(C)c(-c3c(C)noc3C)n2)c1` (stereo partly shown) [Example 135-1a] the IC50 was under 5 µM. Work on `CCOC(=O)N1CCOC[C@H]1CNc1nc(-c2cc(OC[C@@H](O)CNC)ccc2F)nc(-c2c(C)noc2C)c1C` [Example 59-3] yielded an IC50 of under 5 µM. `CNCC(O)COc1cccc(-c2nc(N[C@@H]3CCOC3)c(C)c(N3CCN(S(C)(=O)=O)CC3)n2)c1` (stereo partly shown) [Example 434-1a] gave an IC50 of under 5 µM. `CNC[C@@H](O)COc1ccc(Cl)c(-c2nc(-c3c(C)noc3C)c(C)c(N3Cc4cc(Br)cnc4C3)n2)c1` [Example 248-3] gave an IC50 of under 5 µM. For `CCS(=O)(=O)N1CCCC(CNc2nc(-c3cccc(OCC(O)CNC)c3)nc(-c3c(C)noc3C)c2C)C1` (stereo not shown) [Example 167-1a], the IC50 was under 5 µM. Work on `CNCC(O)COc1cccc(-c2nc(N[C@@H]3CCC[C@@H]3O)c(C)c(-c3c(C)noc3C)n2)c1` (stereo partly shown) [Example 250-1a] yielded an IC50 of under 5 µM. Molecule `CNCC(O)COc1cccc(-c2nc(NC3CCOCC3)cc(-c3ccc(OC)c(OC)c3)n2)c1` (stereo not shown) [Example 658-1a] has an IC50 of at least 20 µM. In the case of `CNCC(O)COc1ccc(Cl)c(-c2nc(NC3CC4(C3)CN(C(=O)OC)C4)c(C)c(-c3c(C)noc3C)n2)c1` (stereo not shown) [Example 45-3], the IC50 is reported as under 5 µM. `CNC[C@@H](O)COc1ccc(Cl)c(-c2nc(-c3c(C)noc3C)c(C)c(N3Cc4ccncc4C3)n2)c1` [Example 159-3] showed an IC50 of under 5 µM. `CNCC(O)COc1cccc(-c2nc(-c3c(C)noc3C)cc(N(C)C3CCOCC3)n2)c1` (stereo not shown) [Example 1-1a] was tested, and the IC50 was under 5 µM. `CNCC(O)COc1cccc(-c2nc(NC3CCS(=O)(=O)CC3)cc(-c3c(C)noc3C)n2)c1` (stereo not shown) [Example 60-1a] was tested, and the IC50 was 10 to 20 µM. `CNCC(O)COc1cccc(-c2nc(-c3c(C)noc3C)cc(N(C)CCC#N)n2)c1` (stereo not shown) [Example 5-1a] showed an IC50 of 10 to 20 µM. With `CNC[C@@H](O)COc1cccc(-c2nc(N[C@@H]3CCN(C4CC4)C[C@@H]3F)c(Cl)c(-c3c(C)noc3C)n2)c1` [Example 68-3] the IC50 was under 5 µM. For `CNCC(O)COc1cccc(-c2nc(-c3ccnc(C)c3)cc(N(C)C3CCOCC3)n2)c1` (stereo not shown) [Example 40-1], the IC50 was 5 to 10 µM. Work on `CNCC(O)COc1cccc(-c2nc(-c3c(C)noc3C)c(C)c(N3CCO[C@@H](CN(C)S(C)(=O)=O)C3)n2)c1` (stereo partly shown) [Example 150-1a] yielded an IC50 of 5 to 10 µM. In the case of `CNCC(O)COc1cc(Cl)cc(-c2nc(N(C)C3CCOCC3)c(C)c(-n3cccn3)n2)c1` (stereo not shown) [Example 618-1a], the IC50 is reported as 10 to 20 µM. Work on `CNC[C@@H](O)COc1ccc(Cl)c(-c2nc(-c3c(C)noc3C)c(C)c(N3CC4(CCN(C(=O)OC)C4)C3)n2)c1` [Example 175-3] yielded an IC50 of under 5 µM. With `CNC[C@@H](O)COc1ccc(Cl)c(-c2nc(N[C@H]3CCN(C)C[C@H]3F)c(C)c(-c3c(C)noc3C)n2)c1` [Example 147-3] the IC50 was under 5 µM. `CNC[C@H](O)COc1ccc(Cl)c(-c2nc(-c3c(C)noc3C)c(C)c(N3CC4(CCN(C5CC5)CC4)C3)n2)c1` [Example 55-3] gave an IC50 of under 5 µM. With `CNCC(O)COc1cccc(-c2nc(NC3CCS(=O)(=O)CC3)c(C)c(-c3c(C)noc3C)n2)c1` (stereo not shown) [Example 59-1a] the IC50 was 10 to 20 µM. Molecule `CCOC(=O)N1CCOC[C@@H]1CNc1nc(-c2cccc(OC[C@@H](O)CNC)c2)nc(-c2c(C)noc2C)c1C` [Example 278-1a] has an IC50 of under 5 µM. With `CNCC(O)COc1cccc(-c2nc(NC3CCOCC3)cc(-c3cnn(CC(C)C)c3)n2)c1` (stereo not shown) [Example 51-1] the IC50 was 10 to 20 µM. With `CNCC(O)COc1cccc(-c2nc(-c3cnc4nccn4c3)cc(N(C)C3CCOCC3)n2)c1` (stereo not shown) [Example 620-1a] the IC50 was 10 to 20 µM. Work on `CNCC(O)COc1cccc(-c2nc(NC3CCOCC3)c(C)c(-c3c(CO)noc3C)n2)c1` (stereo not shown) [Example 256-3] yielded an IC50 of 5 to 10 µM. `CNCC(O)COc1cccc(-c2nc(NC3CCN(C4CC4)CC3)c(C)c(-c3c(C)noc3C)n2)c1` (stereo not shown) [Example 185-1a] was tested, and the IC50 was under 5 µM. In the case of `CCOC(=O)N1CCN(c2nc(-c3cccc(OCC(O)CNC)c3)nc(-c3c(C)noc3C)c2C)CC1` (stereo not shown) [Example 77-1a], the IC50 is reported as under 5 µM. With `CNCC(O)COc1cccc(-c2nc(NC3CCOCC3)c(F)c(-c3c(C)noc3C)n2)c1` (stereo not shown) [Example 96-1a] the IC50 was under 5 µM. `CNC[C@@H](O)COc1ccc(Cl)c(-c2nc(-c3cnn(C)c3)c(C)c(-c3c(C)noc3C)n2)c1` [Example 239-3] was tested, and the IC50 was under 5 µM. For `CNCC(O)COc1cccc(-c2nc(N[C@@H]3CCOC3)c(C)c(N3CCC(n4nc(C)cc4C)C3)n2)c1` (stereo partly shown) [Example 468-1a], the IC50 was 5 to 10 µM. `CNC[C@H](O)COc1ccc(Cl)c(-c2nc(NCCC(C)(C)OC)c(C)c(-c3c(C)noc3C)n2)c1` [Example 82-3] was tested, and the IC50 was under 5 µM. In the case of `CNCC(O)COc1cccc(-c2nc(N[C@@H]3CCN(C(=O)OC)C[C@H]3F)c(C)c(-c3c(C)noc3C)n2)c1` (stereo partly shown) [Example 228-1a], the IC50 is reported as under 5 µM. For `CCNC(=O)N1CCN(c2nc(-c3cccc(OCC(O)CNC)c3)nc(-c3c(C)noc3C)c2C)CC1` (stereo not shown) [Example 106-1a], the IC50 was 5 to 10 µM. `CNCC(O)COc1cc(Cl)cc(-c2nc(-c3ccncc3)cc(N3CCOCC3)n2)c1` (stereo not shown) [Example 632-1a] gave an IC50 of at least 20 µM. In the case of `CNC[C@@H](O)COc1ccc(Cl)c(-c2nc(N[C@@H]3CCN(C4CC4)[C@H](C)C3)c(C)c(-c3c(C)noc3C)n2)c1` [Example 139-3], the IC50 is reported as under 5 µM. `CCO[C@H]1CCC[C@H]1N(CC)c1nc(-c2cc(OC[C@H](O)CNC)ccc2Cl)nc(-c2c(C)noc2C)c1C` [Example 255-3] showed an IC50 of 5 to 10 µM. In the case of `CNCC(O)COc1cccc(-c2nc(-c3c(C)noc3C)c(C)c(N3CCN(C(=O)OCC(F)F)CC3)n2)c1` (stereo not shown) [Example 161-1a], the IC50 is reported as under 5 µM. Molecule `CC[C@@H]1CN(c2nc(-c3cccc(OCC(O)CNC)c3)nc(-c3c(C)noc3C)c2C)CCN1S(=O)(=O)CC` (stereo partly shown) [Example 152-1a] has an IC50 of under 5 µM. `CCOC(=O)N1CCC[C@H]1CCOc1nc(-c2cc(OC[C@H](O)CNC)ccc2Cl)nc(-c2c(C)noc2C)c1C` [Example 221-3] gave an IC50 of under 5 µM. `CNC[C@H](O)COc1ccc(F)c(-c2nc(NC3CCOCC3)c(C)c(-c3c(C)noc3C)n2)c1` [Example 72-3] showed an IC50 of under 5 µM. For `CNCC(O)COc1cccc(-c2nc(N[C@H]3C[C@@H](O)C3)c(C)c(-c3c(C)noc3C)n2)c1` (stereo partly shown) [Example 256-1a], the IC50 was under 5 µM. `CCO[C@@H]1CCC[C@@H]1Nc1nc(-c2cc(OC[C@H](O)CNC)ccc2Cl)nc(-c2c(C)noc2C)c1C` [Example 253-3] showed an IC50 of under 5 µM. With `CNC[C@@H](O)COc1ccc(Cl)c(-c2nc(N[C@@H]3C[C@@H](C)O[C@@H](C)C3)c(C)c(-c3c(C)noc3C)n2)c1` [Example 182-3] the IC50 was under 5 µM. In the case of `CCC(=O)NC1CN(c2nc(-c3cccc(OCC(O)CNC)c3)nc(-c3c(C)noc3C)c2C)C1` (stereo not shown) [Example 14-3], the IC50 is reported as under 5 µM. Work on `CNC[C@H](O)COc1cccc(-c2nc(NC3CCN(C(=O)OC)CC3)c(C)c(-c3c(C)noc3C)n2)c1` [Example 169-1a] yielded an IC50 of under 5 µM. `CNCC(O)COc1cccc(-c2nc(-c3c(C)noc3C)c(C)c(N3CCN4C(=O)OC[C@@H]4C3)n2)c1` (stereo partly shown) [Example 110-1a] showed an IC50 of 5 to 10 µM. `CCOC(=O)N1CCC(N(C)c2cc(-c3c(C)noc3C)nc(-c3cccc(OCC(O)CNC)c3)n2)CC1` (stereo not shown) [Example 172-1a] gave an IC50 of under 5 µM. With `CCOC(=O)N1CCC2(CC1)CN(c1nc(-c3cc(OC[C@H](O)CNC)ccc3Cl)nc(-c3c(C)noc3C)c1C)C2` [Example 285-3] the IC50 was under 5 µM. Molecule `CNCC(O)COc1cccc(-c2nc(NC[C@@H]3CN(C(=O)OC)CCO3)c(C)c(-c3c(C)noc3C)n2)c1` (stereo partly shown) [Example 306-1a] has an IC50 of under 5 µM. Molecule `CNCC(O)COc1cccc(-c2nc(N[C@@H]3CCOC3)c(C)c(-c3ccc(OC)nc3)n2)c1` (stereo partly shown) [Example 408-1a] has an IC50 of 5 to 10 µM.
